# Laboratory results published in patent publication US20220249441A1, “Homodimeric Tobramycin Adjuvant Repurposes Novobiocin as an Effective Antibacterial Agent Against Gram-Negative Bacteria” (priority 2019, published 2022).
# Like-named read-outs stand apart in the source and are kept apart here.
# Key:
# P. aeruginosa = test: Checkerboard assay (antibiotic + adjuvant combination MIC); type: cell-based, Pseudomonas aeruginosa; conditions: Pseudomonas aeruginosa, read-out: MIC of Novobiocin Alone
# A. baumannii = test: as above; type: cell-based, Acinetobacter baumannii; conditions: Acinetobacter baumannii, read-out: MIC of Novobiocin Alone
# Description: (§1) Antimicrobial Susceptibility Assay. The in vitro antimicrobial activity of all compounds/antibiotics against a panel of bacteria was evaluated by microbroth dilution method in accordance with the Clinical and Laboratory Standards Institute (CLSI) guidelines (using ATCC strains as quality control strains) (54). Overnight grown bacterial cultures were diluted in saline to achieve a 0.5 McFarland turbidity, followed by 1:50 dilution in Mueller-Hinton broth (MHB) for inoculation to a final concentration of approximately 5×10^5 CFU/mL. […] The lowest concentration that prevented the visible growth of bacteria was defined as the MIC for each antimicrobial agent. The broth with or without bacterial cells was used as positive or negative control, respectively.
# (§2) Checkerboard Assay. Combination studies with different antibiotics were performed in 96-well plates as previously described (19). Briefly, the antibiotic of interest was serially diluted in MHB along the abscissa while the adjuvant (tobramycin homodimer) was serially diluted in MHB along the ordinate. This creates a 10×7 matrices wherein each well consists of a combination of different antibiotic and adjuvant concentrations. Overnight grown bacterial cultures were diluted in saline to achieve a 0.5 McFarland turbidity, followed by 1:50 dilution in Mueller-Hinton broth (MHB) for inoculation to a final concentration of approximately 5×10^5 CFU/mL. […] MIC was recorded as wells with the lowest concentration of drugs with no bacterial growth. The fractional inhibitory concentration (FIC) for each antibiotic was calculated by dividing the MIC of the antibiotic in the presence of adjuvant by the MIC of the antibiotic alone. Similarly, the FIC of adjuvant was calculated by dividing the MIC of the adjuvant in the presence of antibiotic by the MIC of the adjuvant alone. FIC index is the sum of both FICs. FIC indices of ≤0.5 were deemed synergistic; >0.5-4, no interaction; and >4, antagonistic.
# E. coli = test: as above; type: cell-based, Escherichia coli; conditions: Escherichia coli, read-out: MIC of Novobiocin Alone
# Description: as §1, §2
# K. pneumoniae = test: as above; type: cell-based, Klebsiella pneumoniae; conditions: for MIC: Klebsiella pneumoniae, read-out: MIC of Novobiocin Alone
# Description: as §1, §2
# E. cloacae = test: as above; type: cell-based, Enterobacter cloacae; conditions: Enterobacter cloacae, read-out: MIC of Novobiocin Alone
# Description: as §1, §2
# [1] = test system: A. baumannii ATCC 17978 and resistant mutants; test: microbe, parasite or virus in culture; type: cell-based, Acinetobacter baumannii; conditions: Acinetobacter baumannii
# Description: as §1
# (§3) Development of Resistance Study. […] Tobramycin and colistin were included as controls. At 24-hour intervals, the cultures were assessed for growth. […] This serial passaging was repeated for 8 days.
# E. faecium ATCC 27270 = test: MIC and combination against Gram-positive bacteria; type: cell-based; conditions: Enterococcus faecium, ATCC27270
# Description: (§4) Next, we investigated whether tobramycin by itself would potentiate novobiocin against Gram-negative bacteria.
# as §1
# MRSA ATCC 33592 = test: MIC and combination against Gram-positive bacteria; type: cell-based; conditions: Staphylococcus aureus
# Description: as §4, §1
# MRSE 61589 = test: MIC and combination against Gram-positive bacteria; type: cell-based; conditions: Staphylococcus epidermidis
# Description: as §4, §1
# MDR A. baumannii = test: Galleria mellonella in vivo larvae-infection model; conditions: single dose 100 mg/kg, agent alone; after 24 h
# Description: Galleria mellonella In vivo Larvae-Infection Model. In vivo synergistic effects were determined using Galleria mellonella infection model, as previously described (49). Briefly, larvae were purchased from The Worm Lady Live Feeder (ON, Canada), stored in their natural habitat at 16° C., and used within 10 days of delivery. The larvae (average weight of 250 mg) were used for tolerability and efficacy studies. Tolerability study was performed by injecting a 10 μL aliquot of antimicrobial agents only at concentrations equivalent to 100 mg/kg or 200 mg/kg. The larvae (ten in each group) were incubated at 37° C. and monitored for 96 h. For efficacy studies, the virulence and bacterial load required to kill 100% of the larvae within 24 h (with no treatment) was first determined, which is approximately 10 CFU. Overnight grown culture of respective MDR A. baumannii isolate was standardized to 0.5 McFarland standard and diluted in PBS to a final concentration of 10^3 CFU/mL. A 10 μL aliquot of this solution (˜10 CFU) was injected into each larva and incubated for 3 h at 37° C. […] Larvae treated with 10 μL of PBS or high concentrations of test antibiotics served as negative and positive control, respectively. The larvae were incubated at 37° C. in Petri dishes lined with filter paper and scored for survivability every 6 h for up to 36 h. […]
# A. baumannii ATCC 17978 = test: microbe, parasite or virus in culture; type: cell-based, Acinetobacter baumannii
# Description: as §3
smiles,measurement,setting,value
CO[C@@H]1[C@@H](OC(N)=O)[C@@H](O)[C@H](Oc2ccc3c(O)c(NC(=O)c4ccc(O)c(CC=C(C)C)c4)c(=O)oc3c2C)OC1(C)C [Novobiocin],MIC,P. aeruginosa; P. aeruginosa 259-96918,512 mg/L
same,MIC,P. aeruginosa; P. aeruginosa 260-97103,256 mg/L
same,MIC,P. aeruginosa; P. aeruginosa 262-101856,512 mg/L
same,MIC,P. aeruginosa; P. aeruginosa 264-104354,512 mg/L
same,MIC,P. aeruginosa; P. aeruginosa 91433,16 mg/L
same,MIC,P. aeruginosa; P. aeruginosa 100036,1020 mg/L
same,MIC,P. aeruginosa; P. aeruginosa 101243,128 mg/L
same,MIC,P. aeruginosa; P. aeruginosa 101885,1020 mg/L
same,MIC,P. aeruginosa; P. aeruginosa 114228,512 mg/L
same,MIC,P. aeruginosa; PA 91433,16 mg/L
same,MIC,P. aeruginosa; PA 101243,128 mg/L
same,MIC,P. aeruginosa; PA 114228,512 mg/L
same,MIC,"P. aeruginosa; PAO1, P. aeruginosa PAO1",512 mg/L
same,MIC,"P. aeruginosa; PAO1, PAO1 (wild-type)",512 mg/L
same,MIC,"P. aeruginosa; PAO1, PAO1",512 mg/L
same,MIC,P. aeruginosa; PAO200 (efflux-deficient),32 mg/L
same,MIC,P. aeruginosa; PAO750 (efflux-deficient),32 mg/L
same,MIC,A. baumannii; A. baumannii 027,8 mg/L
same,MIC,A. baumannii; A. baumannii 031,8 mg/L
same,MIC,A. baumannii; A. baumannii 92247,4 mg/L
same,MIC,A. baumannii; A. baumannii LAC-4,8 mg/L
same,MIC,A. baumannii; AB 92247,4 mg/L
same,MIC,"A. baumannii; ATCC17978, A. baumannii ATCC 17978",16 mg/L
same,MIC,A. baumannii; A. baumannii 110193,256 mg/L
same,MIC,"E. coli; ATCC25922, E. coli ATCC 25922",64 mg/L
same,MIC,E. coli; E. coli 94393,128 mg/L
same,MIC,E. coli; E. coli 94474,256 mg/L
same,MIC,E. coli; E. coli 107115,128 mg/L
same,MIC of Novobiocin Alone,K. pneumoniae,256 mg/L
same,MIC,K. pneumoniae; K. pneumoniae 113250,512 mg/L
same,MIC,K. pneumoniae; K. pneumoniae 113254,256 mg/L
same,MIC,K. pneumoniae; K. pneumoniae 116381,1020 mg/L
same,MIC,E. cloacae; E. cloacae 117029,1020 mg/L
same,MIC,E. cloacae; E. cloacae 118568,1020 mg/L
same,MIC,E. cloacae; E. cloacae 121187,64 mg/L
same,MIC,E. cloacae; EC 118568,1020 mg/L
same,MIC,"[1]; ATCC17978, 18 h, Mutant C (seven serial passages, sub-MICs novobiocin + 7.1 μM compound 1)",128 mg/L
same,MIC,"[1]; ATCC17978, Mutant A (seven serial passages, sub-MICs novobiocin)",2050 mg/L
same,MIC,"[1]; ATCC17978, Mutant B (seven serial passages, sub-MICs colistin)",< 0.031 mg/L
same,MIC,E. faecium ATCC 27270,2 mg/L
same,MIC,MRSA ATCC 33592,0.125 mg/L
same,MIC,MRSE 61589,0.0625 mg/L
same,mortality of infected larvae,MDR A. baumannii,100%
same,fold change in MIC,A. baumannii ATCC 17978; after 3 days of serial passaging,64 fold
same,fold change in MIC,A. baumannii ATCC 17978; after 5 days of serial passaging,256 fold
